Reference: ChEMBL document CHEMBL1208673, “CoMFA and CoMSIA 3D-QSAR studies on quionolone caroxylic acid derivatives inhibitors of HIV-1 integrase” (Eur J Med Chem, 2010)

Target: Human immunodeficiency virus type 1 integrase (Human immunodeficiency virus 1, UniProt Q7ZJM1)
Test: Inhibition of HIV-1 integrase

Human immunodeficiency virus type 1 integrase, sequence (Q7ZJM1 whole entry): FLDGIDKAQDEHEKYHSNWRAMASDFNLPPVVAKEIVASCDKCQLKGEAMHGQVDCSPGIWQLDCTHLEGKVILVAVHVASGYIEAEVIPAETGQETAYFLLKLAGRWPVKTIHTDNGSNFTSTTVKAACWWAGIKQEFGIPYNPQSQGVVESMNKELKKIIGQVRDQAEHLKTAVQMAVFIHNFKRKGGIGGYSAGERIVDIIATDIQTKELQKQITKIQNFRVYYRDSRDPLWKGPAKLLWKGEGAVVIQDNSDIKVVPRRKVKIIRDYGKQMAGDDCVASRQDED

Row | Structure (SMILES) | IC50 [µM]
1 | O=C(O)Cn1cc(C(=O)O)c(=O)c2cc(Cc3cccc(Cl)c3Cl)ccc21 | 0.0316
2 | O=C(O)c1c[nH]c2ccc(Cc3cccc(Cl)c3Cl)cc2c1=O | 0.0692
3 | COc1cc2c(cc1Cc1cccc(Cl)c1F)c(=O)c(C(=O)O)cn2CCO | 0.00891
